Tests used:
[1] = test system: HCV genotype 1a (HCV-1a) replicon cells; assay: HCV genotype 1a replicon luciferase assay (EC50); assay type: cell-based, hepatitis C virus genotype 1a (H77 clone); details: Hepatitis C virus, 72 h, 3 days, luciferase (Bright-Glo)
Method in brief: (§1)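 EC50 values come from nonlinear fitting of inhibition derived from replicon luciferase signal. Cells (8000/well) were treated 3 days with duplicate 6-point, 5-fold dilutions, starting at 100, 10 or 1 nM, with 0.5% DMSO.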

[2] = Cell Titer-fluor cell activity assay in HCV-1b replicon cells (CC50); assay type: cell-based
Method: The EC50 and CC50 values of anti-HCV compounds were determined by HCV genotype 1a (HCV-1a) and 1B (HCV-1b) stable transfer replication (replicon) cells. The source of genotype 1a replicon is H77 clones containing K1691R, K2040R and S2204I adaptive mutations. The source of genotype 1b replicon is Con1 clones containing E1202G, T1280I and K1846T adaptive mutations.
HCV Replicon Cell Lines: HCV-1a and HCV-1b Cells
The compound powder was dissolved in 100% DMSO. Then the compound was diluted 5 times with 6 points, and added into the cell plate with Echo liquid handler. Ensure the final concentration of DMSO was 0.5%. Each compound was tested in double holes. Maximum initial concentration was 100, 10 or 1 nM, 5 times dilution, 6 points.
b) Cell Culture (HCV-1a or HCV-1b Replicon Cell):
1) absorbing the culture supernatant of the cell culture and washing the cells with 10 mL PBS.
2) adding preheated pancreatin to the washed cell culture flasks, rotating culture bottle to make the bottom of the culture bottle uniformly covered by pancreatin, then placed into 37° C., 5% CO2 incubator to digest.
3) suspending cells in each T150 culture flask with 10-15 mL culture medium, absorbing 0.1 mL liquid and diluting 2 times by trypan blue solution as counted.
4) diluting cells to 8×10^4/mL with the culture medium, adding the diluted cells into the compound-containing 96-well plate (Greiner, Cat.#655090) (100 μL/well, 8000 cells/well) with automatic liquid separator (Thermo Scientific). Then place into a 37° C., 5% CO2 incubator for 3 days. Cell control well: no compound, only containing 0.5% DMSO.
5) adding chemiluminescent substrate Cell Titer-fluor to the cell well, after incubation for 30 minutes, detecting the signal by chemiluminescence detection system Envison (Ex at 405 nm and read at 515 nm). The effect of the compounds on the activity of HCV replicon cells was analyzed according to the luminescence data, which was used to calculate the CC50 values.
The EC50 or CC50 values were obtained by nonlinear fitting analysis on inhibition percentage (inh %) data with GraphPad Prism software.

[3] = test system: HCV genotype 1b (HCV-1b) replicon cells; assay: HCV genotype 1b replicon luciferase assay (EC50); assay type: cell-based, hepatitis C virus genotype 1b (Con1 clone); details: Hepatitis C virus, 72 h, 3 days, luciferase (Bright-Glo)
Method in brief: as §1

SMILES	EC50 [1]	CC50 at 3 days [2]	EC50 [3]
COC(=O)N[C@H](C(=O)N1CCC[C@H]1c1ncc(-c2ccc(-c3ccc(-c4cnc(C5C6CCC(C6)[C@@H]5C(=O)N(NC(=O)OC)C(C)C)[nH]4)cc3)cc2Cl)[nH]1)C(C)C (stereo partly drawn) [AA_156]	1 to 10 nM	> 1 nM	0.001 to 0.1 nM
COC(=O)N[C@H](C(=O)N1CCC[C@H]1c1ncc(-c2ccc(-c3ccc(-c4cnc(C5C6CCC(C6)[C@@H]5C(=O)N(NC(=O)OC)C5CCOCC5)[nH]4)cc3)cc2)[nH]1)C(C)C (stereo partly drawn) [AA_158]	1 to 10 nM	> 1 nM	0.001 to 0.1 nM
COC(=O)N[C@H](C(=O)N1CCC[C@H]1c1ncc(-c2ccc(-c3ccc(-c4cnc(C5CC6(C[C@@H]5C(=O)N(NC(=O)OC)C(C)C)OCCO6)[nH]4)cc3)cc2)[nH]1)C(C)C (stereo partly drawn) [AA_160]	1 to 10 nM	> 50 nM	0.001 to 0.1 nM
COC(=O)N[C@H](C(=O)N1CCC[C@H]1c1ncc(-c2ccc(-c3ccc(-c4cnc(C5C6CCC(C6)[C@H]5C(=O)NCc5cccnc5)[nH]4)cc3)cc2)[nH]1)C(C)C (stereo partly drawn) [AA_162_A]	1 to 10 nM	> 1 nM	0.001 to 0.1 nM
COC(=O)N[C@H](C(=O)N1CCC[C@H]1c1ncc(-c2ccc(-c3ccc(-c4cnc(C5C6CCC(C6)[C@@H]5C(=O)NCc5cccnc5)[nH]4)cc3)cc2)[nH]1)C(C)C (stereo partly drawn) [AA_162_B]	1 to 10 nM	> 1 nM	0.001 to 0.1 nM
COC(=O)N[C@H](C(=O)N1CCC[C@H]1c1ncc(-c2ccc(-c3ccc(-c4cnc([C@@H]5[C@H]6CC[C@H](C6)[C@H]5C(=O)NCc5cccnc5)[nH]4)cc3)cc2)[nH]1)C(C)C [AA_162_ENDOA2]	0.101 to 1 nM	> 1 nM	0.001 to 0.1 nM
COC(=O)N[C@H](C(=O)N1CCC[C@H]1c1cnc(-c2ccc(-c3ccc(-c4ncc(C5C6CCC(C6)[C@H]5C(=O)N(NC(=O)OC)C(C)C)[nH]4)cc3)cc2OC)[nH]1)C(C)C (stereo partly drawn) [AA_166_A]	10 to 100 nM	> 5 nM	0.001 to 0.1 nM
COC(=O)N[C@H](C(=O)N1CCC[C@H]1c1cnc(-c2ccc(-c3ccc(-c4ncc(C5C6CCC(C6)[C@@H]5C(=O)N(NC(=O)OC)C(C)C)[nH]4)cc3)cc2OC)[nH]1)C(C)C (stereo partly drawn) [AA_166_B]	10 to 100 nM	> 5 nM	0.101 to 1 nM
COC(=O)N[C@H](C(=O)N1CCC[C@H]1c1ncc(-c2ccc(-c3ccc(-c4cnc(C5C6CCC(C6)[C@@H]5C(=O)N(NC(=O)OC)C(C)C)[nH]4)cc3)c(C)c2)[nH]1)C(C)C (stereo partly drawn) [AA_167]	1 to 10 nM	> 1 nM	0.001 to 0.1 nM
COC(=O)N[C@H](C(=O)N1CCC[C@H]1c1cnc(-c2ccc(-c3ccc(-c4ncc(C5C6CCC(C6)[C@H]5C(=O)N(NC(=O)OC)C(C)C)[nH]4)cc3)cc2C)[nH]1)C(C)C (stereo partly drawn) [AA_169_A]	1 to 10 nM	> 5 nM	0.001 to 0.1 nM
COC(=O)N[C@H](C(=O)N1CCC[C@H]1c1cnc(-c2ccc(-c3ccc(-c4ncc(C5C6CCC(C6)[C@@H]5C(=O)N(NC(=O)OC)C(C)C)[nH]4)cc3)cc2C)[nH]1)C(C)C (stereo partly drawn) [AA_169_B]	10 to 100 nM	> 5 nM	0.001 to 0.1 nM
COC(=O)N[C@H](C(=O)N1CCC[C@H]1c1ncc(-c2ccc(-c3ccc(-c4cnc(C5C6CCC(C6)[C@H]5C(=O)NCc5cccnc5)[nH]4)cc3)cc2)[nH]1)[C@@H](C)OC (stereo partly drawn) [AA_179_A]	1 to 10 nM	> 1 nM	0.001 to 0.1 nM
COC(=O)N[C@H](C(=O)N1CCC[C@H]1c1ncc(-c2ccc(-c3ccc(-c4cnc(C5C6CCC(C6)[C@@H]5C(=O)NCc5cccnc5)[nH]4)cc3)cc2)[nH]1)[C@@H](C)OC (stereo partly drawn) [AA_179_B]	1 to 10 nM	> 1 nM	0.001 to 0.1 nM
O=C(NCc1cccnc1)[C@H]1C2CCC(C2)C1c1ncc(-c2ccc(-c3ccc(-c4cnc([C@@H]5C6CCC(C6)[C@H]5C(=O)NCc5cccnc5)[nH]4)cc3)cc2)[nH]1 (stereo partly drawn) [AA_180]	10 to 100 nM	> 10 nM	1 to 10 nM
COC(=O)N[C@H](C(=O)N1CCC[C@H]1c1ncc(-c2ccc(-c3ccc(-c4cnc([C@H]5CCCC[C@@H]5C(=O)NCc5cncc(C)c5)[nH]4)cc3)cc2)[nH]1)C(C)C [AA_184]	10 to 100 nM	> 5 nM	0.101 to 1 nM
COC(=O)N[C@H](C(=O)N1CCC[C@H]1c1ncc(-c2ccc(-c3ccc(-c4cnc([C@H]5CCCC[C@@H]5C(=O)NCc5ccc(Cl)nc5)[nH]4)cc3)cc2)[nH]1)C(C)C [AA_185]	10 to 100 nM	> 5 nM	0.101 to 1 nM
COC(=O)N[C@H](C(=O)N1CCC[C@H]1c1ncc(-c2ccc(-c3ccc(-c4cnc([C@H]5CCCC[C@@H]5C(=O)NC5(c6cccnc6)CC5)[nH]4)cc3)cc2)[nH]1)C(C)C [AA_186]	1 to 10 nM	> 5 nM	0.101 to 1 nM
COC(=O)N[C@H](C(=O)N1CCC[C@H]1c1ncc(-c2ccc(-c3ccc(-c4cnc(C5C6CCC(C6)[C@@H]5C(=O)N(NC(=O)OC)C(C)C)[nH]4)cc3)c(OC)c2)[nH]1)C(C)C (stereo partly drawn) [AA_190_A]	10 to 100 nM	> 1 nM	0.101 to 1 nM
COC(=O)N[C@H](C(=O)N1CCC[C@H]1c1ncc(-c2ccc(-c3ccc(-c4cnc(C5C6CCC(C6)[C@H]5C(=O)N(NC(=O)OC)C(C)C)[nH]4)cc3)c(OC)c2)[nH]1)C(C)C (stereo partly drawn) [AA_190_B]	10 to 100 nM	> 1 nM	0.101 to 1 nM
COC(=O)NC(C(=O)N1CCC[C@H]1c1ncc(-c2ccc(-c3ccc(-c4cnc(C5C6CCC(C6)[C@@H]5C(=O)NCc5cccnc5)[nH]4)cc3)cc2)[nH]1)C1CCOCC1 (stereo partly drawn) [AA_191]	1 to 10 nM	> 1 nM	0.101 to 1 nM
COC(=O)N[C@H](C(=O)N1CC2(C[C@H]1c1ncc(-c3ccc(-c4ccc(-c5cnc(C6C7CCC(C7)[C@H]6C(=O)NCc6cccnc6)[nH]5)cc4)cc3)[nH]1)OCCO2)C(C)C (stereo partly drawn) [AA_192_B]	1 to 10 nM	> 1 nM	0.001 to 0.1 nM
COC(=O)N[C@H](C(=O)N1CCC[C@H]1c1ncc(-c2ccc(-c3ccc(-c4cnc([C@@H]5C6CCC(C6)[C@H]5C(=O)NCCO)[nH]4)cc3)cc2)[nH]1)C(C)C (stereo partly drawn) [AA_193]	1 to 10 nM	> 1 nM	0.001 to 0.1 nM
COC(=O)N[C@H](C(=O)N1CCC[C@H]1c1ncc(-c2ccc(-c3ccc(-c4cnc([C@H]5C6CCC(C6)[C@@H]5C(=O)NCc5ccccc5N)[nH]4)cc3)cc2)[nH]1)C(C)C (stereo partly drawn) [AA_194]	10 to 100 nM	> 1 nM	0.001 to 0.1 nM
COC(=O)N[C@H](C(=O)N1CCC[C@H]1c1ncc(-c2ccc(-c3ccc(-c4cnc([C@H]5C6CCC(C6)[C@@H]5C(=O)N(C)c5ccccn5)[nH]4)cc3)cc2)[nH]1)C(C)C (stereo partly drawn) [AA_195_A]	0.101 to 1 nM	> 1 nM	0.001 to 0.1 nM
COC(=O)N[C@H](C(=O)N1CCC[C@H]1c1ncc(-c2ccc(-c3ccc(-c4cnc([C@@H]5C6CCC(C6)[C@H]5C(=O)N(C)c5ccccn5)[nH]4)cc3)cc2)[nH]1)C(C)C (stereo partly drawn) [AA_195_B]	1 to 10 nM	> 1 nM	0.001 to 0.1 nM
COC(=O)N[C@H](C(=O)N1CCC[C@H]1c1ncc(-c2ccc(-c3ccc(-c4cnc([C@@H]5[C@H]6CC[C@H](C6)[C@H]5C(=O)N(C)c5ccccn5)[nH]4)cc3)cc2)[nH]1)C(C)C [AA_195_ENDOA2]	0.101 to 1 nM	> 1 nM	0.001 to 0.1 nM

Reference: patent US10160771B2, “Hepatitis C virus inhibitors and uses thereof in preparation of drugs” (priority 2014, dated 2018)
